What was measured:
[1] = target: T1, wild-type Androgen Receptor (AR-wt) (Homo sapiens (Human), UniProt P10275); assay: LNCaP-AR-wt AG reporter assay (agonist mode); format: cell-based; details: for EC50: agonist mode, pEC50 = −Log10(EC50 in Molar), read-out: LNCaP-AR-wt AG pEC50 (converted); for Emax: maximum % stimulation (agonist response) over the tested concentration range, read-out: LNCaP-AR-wt AG MAX % Stim
[2] = target: T1, wild-type Androgen Receptor (AR-wt); assay: LNCaP-AR-wt ANT reporter assay (antagonist mode); format: cell-based; details: for IC50 / LNCaP-AR-wt ANT pIC50: antagonist mode, pIC50 = −Log10(IC50 in Molar); for IC50: read-out: LNCaP-AR-wt ANT pIC50 (converted); for Emax: maximum % inhibition of R1881 control response over the tested concentration range, read-out: LNCaP-AR-wt ANT MAX % Inh
rGABA-gated Cl− channel = assay: GABA-Gated Cl Channel Antagonist Radioligand Binding Assay; set-up: species or system rat; details: 10 μM single point, [35S]-TBPS, cerebral cortex membrane homogenates
Summary of the method: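 Values give percent inhibition of control specific […] (3 nM) binding at a single 10 μM compound concentration. Cerebral cortex membranes, 120 min, 22° C, phosphate buffer pH 7.4 with 500 mM NaCl; 20 μM picrotoxinin sets nonspecific binding; filtration and scintillation read-out.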

[3] = target: T2, F876L mutant Androgen Receptor (AR-F876L) (Homo sapiens (Human), UniProt P10275, F877L); assay: LNCaP-AR-F876L AG reporter assay (agonist mode); format: cell-based; details: for EC50: agonist mode, pEC50 = −Log10(EC50 in Molar), read-out: LNCaP-AR-F876L AG pEC50 (converted); for Emax: maximum % stimulation (agonist response) over the tested concentration range, read-out: LNCaP-AR-F876L AG MAX % Stim
T2 sequence (P10275 whole entry F877L): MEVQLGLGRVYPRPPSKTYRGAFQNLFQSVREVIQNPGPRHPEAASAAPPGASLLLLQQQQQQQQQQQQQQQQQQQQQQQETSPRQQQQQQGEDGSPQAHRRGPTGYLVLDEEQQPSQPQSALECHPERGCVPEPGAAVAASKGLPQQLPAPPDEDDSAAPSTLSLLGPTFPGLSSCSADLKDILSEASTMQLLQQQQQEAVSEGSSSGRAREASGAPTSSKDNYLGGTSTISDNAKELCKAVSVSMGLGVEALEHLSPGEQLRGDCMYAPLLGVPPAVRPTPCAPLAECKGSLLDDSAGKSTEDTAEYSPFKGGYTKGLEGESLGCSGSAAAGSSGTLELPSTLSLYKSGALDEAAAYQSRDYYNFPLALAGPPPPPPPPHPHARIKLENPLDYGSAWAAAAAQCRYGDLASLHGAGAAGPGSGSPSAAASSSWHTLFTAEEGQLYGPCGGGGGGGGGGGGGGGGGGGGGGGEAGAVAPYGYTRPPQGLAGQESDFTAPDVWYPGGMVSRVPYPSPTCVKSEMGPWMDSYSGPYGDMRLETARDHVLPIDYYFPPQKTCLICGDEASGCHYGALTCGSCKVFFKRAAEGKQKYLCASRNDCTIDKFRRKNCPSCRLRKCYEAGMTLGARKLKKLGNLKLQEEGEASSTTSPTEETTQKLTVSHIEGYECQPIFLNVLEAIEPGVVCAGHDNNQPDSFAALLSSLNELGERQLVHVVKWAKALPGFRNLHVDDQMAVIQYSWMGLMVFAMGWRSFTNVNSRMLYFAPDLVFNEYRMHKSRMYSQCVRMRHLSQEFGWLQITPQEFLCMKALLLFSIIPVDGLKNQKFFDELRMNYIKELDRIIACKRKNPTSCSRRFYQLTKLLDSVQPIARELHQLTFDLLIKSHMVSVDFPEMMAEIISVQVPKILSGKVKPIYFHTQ

[4] = target: T2, F876L mutant Androgen Receptor (AR-F876L); assay: LNCaP-AR-F876L ANT reporter assay (antagonist mode); format: cell-based; details: for IC50 / LNCaP-AR-F876L ANT pIC50: antagonist mode, pIC50 = −Log10(IC50 in Molar); for IC50: read-out: LNCaP-AR-F876L ANT pIC50 (converted); for Emax: maximum % inhibition of R1881 control response over the tested concentration range, read-out: LNCaP-AR-F876L ANT MAX % Inh

T1 sequence (P10275 whole entry): as the sequence (P10275 whole entry F877L) above, with L877F counted along it

| SMILES | EC50 [1] | Emax [1] | IC50 [2] | Emax [2] | rGABA-gated Cl− channel % inh @10 μM (rGABA-gated Cl− channel) | EC50 [3] | Emax [3] | IC50 [4] | Emax [4] | LNCaP-AR-wt ANT pIC50 [2] | LNCaP-AR-F876L ANT pIC50 [4] |
| --- | --- | --- | --- | --- | --- | --- | --- | --- | --- | --- | --- |
| CC(=O)N1CCC(n2ncc3cc(N4C(=S)N(c5cnc(C#N)c(C(F)(F)F)c5)C(=O)C45CCC5)ccc32)CC1 [Cpd 131, 5-[8-[1-(1-acetyl-4-piperidyl)indazol-5-yl]-5-oxo-7-thioxo-6,8-diazaspiro[3.4]octan-6-yl]-3-(trifluoromethyl)pyridine-2-carbonitrile] | > 15.1 µM | -0.1% | 589 nM | 101% | 97.4% | > 15.1 µM | 0.3% | 708 nM | 97.9% | – | – |
| N#Cc1ncc(N2C(=O)C3(CCC3)N(c3ccc(OC4C5CCC4CNC5)cc3)C2=S)cc1C(F)(F)F (stereo not drawn) [Cpd 138, 5-[8-[4-(3-azabicyclo[3.2.1]octan-8-yloxy)phenyl]-5-oxo-7-thioxo-6,8-diazaspiro[3.4]octan-6-yl]-3-(trifluoromethyl)pyridine-2-carbonitrile] | > 15.1 µM | -0.1% | 427 nM | 103% | 35.6% | > 15.1 µM | 0.1% | 269 nM | 100% | – | – |
| Cl.N#Cc1ncc(N2C(=O)C3(CCC3)N(c3cnc(OC4CCNCC4)nc3)C2=S)cc1C(F)(F)F [Cpd 141, 5-{8-Oxo-5-[2-(piperidin-4-yloxy)-pyrimidin-5-yl]-6-thioxo-5,7-diaza-spiro[3.4]oct-7-yl}-3-trifluoromethyl-pyridine-2-carbonitrile] | > 15.1 µM | -0.1% | – | 84.9% | 56.1% | > 15.1 µM | 0% | – | 66.8% | 6.30 | 6.51 |
| CC(C)CCN1CCC(Oc2ccc(N3C(=S)N(c4cnc(C#N)c(Cl)c4)C(=O)C34CCC4)cn2)CC1 [Cpd 149, 3-chloro-5-[8-[6-[(1-isopentyl-4-piperidyl)oxy]-3-pyridyl]-5-oxo-7-thioxo-6,8-diazaspiro[3.4]octan-6-yl]pyridine-2-carbonitrile] | > 15.1 µM | 0.5% | 81.3 nM | 99.8% | 35.4% | > 15.1 µM | 1.5% | 105 nM | 97.9% | – | – |
| CN1CCC(Oc2ncc(N3C(=S)N(c4cnc(C#N)c(C(F)(F)F)c4)C(=O)C34CCC4)cn2)CC1 [Cpd 152, 5-[8-[2-[(1-methyl-4-piperidyl)oxy]pyrimidin-5-yl]-5-oxo-7-thioxo-6,8-diazaspiro[3.4]octan-6-yl]-3-(trifluoromethyl)pyridine-2-carbonitrile] | > 15.1 µM | 0.2% | – | 101% | 15.1% | > 15.1 µM | 0.1% | – | 99.9% | 6.38 | 6.37 |
| COc1cc(N2C(=O)C3(CCC3)N(c3ccc(OC4CCNCC4)cc3)C2=S)cnc1C#N [Cpd 154, 3-methoxy-5-[5-oxo-8-[4-(4-piperidyloxy)phenyl]-7-thioxo-6,8-diazaspiro[3.4]octan-6-yl]pyridine-2-carbonitrile] | > 15.1 µM | -0.1% | 468 nM | 102% | −22.2% | > 15.1 µM | -0.1% | 269 nM | 100% | – | – |

Further lines, with some results ahead:

| EC50 [1] | Emax [1] | IC50 [2] | Emax [2] | rGABA-gated Cl− channel % inh @10 μM (rGABA-gated Cl− channel) | EC50 [3] | Emax [3] | IC50 [4] | Emax [4] | SMILES | LNCaP-AR-wt ANT pIC50 [2] | LNCaP-AR-F876L ANT pIC50 [4] |
| --- | --- | --- | --- | --- | --- | --- | --- | --- | --- | --- | --- |
| > 15.1 µM | 0.3% | 269 nM | 102% | 99.1% | > 15.1 µM | 0.2% | 282 nM | 100% | N#Cc1ncc(N2C(=O)C3(CCC3)N(c3ccc(C4=C[C@@H](O)[C@H](O)CO4)cc3)C2=S)cc1C(F)(F)F [Cpd 112, 5-(5-(4-((3R,4R)-3,4-dihydroxy-3,4-dihydro-2H-pyran-6-yl)phenyl)-8-oxo-6-thioxo-5,7-diazaspiro[3.4]octan-7-yl)-3-(trifluoromethyl)picolinonitrile] | – | – |
| > 15.1 µM | -0.1% | 575 nM | 87% | 40.0% | > 15.1 µM | 0.1% | 288 nM | 104% | N#Cc1ncc(N2C(=O)C3(CCC3)N(c3ccc4nn(C5CCNCC5)cc4c3)C2=S)cc1C(F)(F)F [Cpd 115, 5-[5-oxo-8-[2-(4-piperidyl)indazol-5-yl]-7-thioxo-6,8-diazaspiro[3.4]octan-6-yl]-3-(trifluoromethyl)pyridine-2-carbonitrile] | – | – |
| > 15.1 µM | 0.1% | 537 nM | 102% | 43.1% | > 15.1 µM | 2.7% | 195 nM | 100% | N#Cc1ncc(N2C(=O)C3(CCC3)N(c3ccc4c(cnn4C4CCNCC4)c3)C2=S)cc1C(F)(F)F [Cpd 119, 5-[5-oxo-8-[1-(4-piperidyl)indazol-5-yl]-7-thioxo-6,8-diazaspiro[3.4]octan-6-yl]-3-(trifluoromethyl)pyridine-2-carbonitrile] | – | – |
| > 15.1 µM | 0.9% | 77.6 nM | 102% | 64.0% | > 15.1 µM | 0.1% | 36.3 nM | 100% | CN1CCC(Cn2cc3cc(N4C(=S)N(c5cnc(C#N)c(C(F)(F)F)c5)C(=O)C45CCC5)ccc3n2)CC1 [Cpd 129, 5-[8-[2-[(1-methyl-4-piperidyl)methyl]indazol-5-yl]-5-oxo-7-thioxo-6,8-diazaspiro[3.4]octan-6-yl]-3-(trifluoromethyl)pyridine-2-carbonitrile] | – | – |
| > 15.1 µM | 0.7% | 1580 nM | 98.3% | −8.5% | > 15.1 µM | 0.6% | 977 nM | 99% | Cn1cc(N2C(=S)N(c3cnc(C#N)c(C(F)(F)F)c3)C(=O)C23CCC3)ccc1=O [Cpd 133, 5-(5-(1-methyl-6-oxo-1,6-dihydropyridin-3-yl)-8-oxo-6-thioxo-5,7-diazaspiro[3.4]octan-7-yl)-3-(trifluoromethyl)picolinonitrile] | – | – |
| > 15.1 µM | 0.1% | 389 nM | 104% | 99.6% | > 15.1 µM | -0.1% | 155 nM | 102% | C[C@@H]1OC(c2ccc(N3C(=S)N(c4cnc(C#N)c(C(F)(F)F)c4)C(=O)C34CCC4)cc2)=C[C@H](O)[C@H]1O [Cpd 135, 5-(5-(4-((2S,3R,4S)-3,4-dihydroxy-2-methyl-3,4-dihydro-2H-pyran-6-yl)phenyl)-8-oxo-6-thioxo-5,7-diazaspiro[3.4]octan-7-yl)-3-(trifluoromethyl)picolinonitrile] | – | – |
| > 15.1 µM | 0.3% | 1100 nM | 98.3% | 42.3% | > 15.1 µM | 0.6% | 363 nM | 99.9% | CN1CCC(C(=O)c2ccc(N3C(=S)N(c4cnc(C#N)c(C(F)(F)F)c4)C(=O)C34CCC4)cc2)CC1 [Cpd 144, 5-[8-[4-(1-methylpiperidine-4-carbonyl)phenyl]-5-oxo-7-thioxo-6,8-diazaspiro[3.4]octan-6-yl]-3-(trifluoromethyl)pyridine-2-carbonitrile] | – | – |
| > 15.1 µM | 0.1% | 302 nM | 101% | 77.3% | > 15.1 µM | 0.6% | 126 nM | 101% | N#Cc1ncc(N2C(=O)C3(CCC3)N(c3ccc(OC4CC5(CCN5)C4)cc3)C2=S)cc1C(F)(F)F (stereo not drawn) [Cpd 148, 5-[8-[4-(3-azaspiro[3.3]heptan-6-yloxy)phenyl]-5-oxo-7-thioxo-6,8-diazaspiro[3.4]octan-6-yl]-3-(trifluoromethyl)pyridine-2-carbonitrile] | – | – |
| > 15.1 µM | 0.2% | 1050 nM | 97.2% | 77.9% | > 15.1 µM | 0.3% | 468 nM | 99.3% | N#Cc1ncc(N2C(=O)C3(CCC3)N(c3ccc4nn(CCO)cc4c3)C2=S)cc1C(F)(F)F [Cpd 161, 5-[8-[2-(2-hydroxyethyl)indazol-5-yl]-5-oxo-7-thioxo-6,8-diazaspiro[3.4]octan-6-yl]-3-(trifluoromethyl)pyridine-2-carbonitrile] | – | – |
